Test system: α7 integrin promoter
Assay: muscle cell-based assay: α7βgal+/− myoblasts/myotubes, LacZ reporter, β-galactosidase cleavage of FDG
Design: species or system mouse
Conditions: for AC50 / Emax: Mus musculus; for AC50 / Fit HillSlope / Fit Zero Activity [%] / Fit Curve Class: Table 12; for AC50: log of AC50, given with negative sign, unit of AC50 not given, read-out: Fit Log AC50 (converted); for Emax: read-out: Max Response [%]; for Fit HillSlope: curve fit; for Fit Zero Activity [%]: fitted activity at zero concentration; for Fit Curve Class: key not given; for Score: Table 12 Compound data, concentration-response curve fit
Procedure: An α7 integrin null mouse was produced in which exon 1 of the gene encoding the α7 integrin was replaced by the LacZ reporter. In these mice, all the transcriptional regulatory elements of the α7 integrin promoter were retained, allowing β-galactosidase to report expression of 7 integrin. A primary myoblast cell line (designated α7βgal^+/−) isolated from 10 day old α7^+/− pups were analyzed for the ability of β-galactosidase to report α7 integrin expression. α7βgal^+/− myoblasts were differentiated and subjected to X-gal staining and western analysis (FIGS. 1A and 1B).
The activity of the α7 integrin promoter was measured by β-galactosidase cleavage of the non-fluorescent compound fluorescein di-β-D-galactopyranoside (FDG) to fluorescein. This assay was used to screen compound libraries to identify molecules that up-regulate α7 integrin expression in muscle.
Also evaluated was the effect of various isoforms of laminin and the ligand for α7β1 integrin on integrin expression. Positive hits were subjected to dose-response analysis, western analysis and a myostatin counterscreen (a negative regulator of muscle growth).

SMILES	Activity at 1.530 μM [%] ** (1.530 μM)	AC50	Emax	Fit HillSlope	Fit Zero Activity [%]	Fit Curve Class	Score	Activity at 0.307 μM [%] ** (0.307 μM)
COc1cc(/C=C/CN2CCN(Cc3ccc(C)o3)C(CCO)C2)ccc1O (stereo not drawn) [Compound 42]	0%	14.1 µM	481%	4.9549	9.6207%	2.1	48	–
O=C(Cn1cccc1C(=O)c1ccccc1)NCCCc1ccccc1 [Compound 43]	–	3.98 µM	131%	0.9	0%	2.1	47	–
CC(=O)Nc1ccc(N(C(=O)c2cnccn2)C(C(=O)NC2CCCCC2)c2ccc(F)cc2)cc1 (stereo not drawn) [Compound 44]	–	11.2 µM	308%	4.095	−17.6073%	2.1	47	–
COc1ccc(N2CCCC2)c(NC(=O)c2ccc([N+](=O)[O-])o2)c1 [Compound 46]	–	7.94 µM	156%	1.01	−35.6022%	2.1	46	–
CC(=O)Nc1ccc(NC(=O)[C@@H](NC(=O)c2cccc(C)c2)C(C)C)cc1 [Compound 47]	–	5.62 µM	142%	1.331	12.5272%	2.1	46	–
O=C(O)c1cc(/N=C/c2c(O)oc3ccccc3c2=O)ccc1O [Compound 48]	–	7.08 µM	165%	1.7137	−35.4511%	2.1	46	–
O=[N+]([O-])c1ccc(N2CCN(c3ccccc3F)CC2)nc1 [Compound 49]	–	5.62 µM	151%	1.9282	2.973%	2.1	46	–
O=C1SC(Cc2ccccc2)C(=O)N1c1ccccc1 (stereo not drawn) [Compound 50]	–	7.94 µM	176%	1.8851	5.0579%	2.1	46	–
Cc1ccc(NCc2nnc(SCC(=O)Nc3nnc(C)s3)n2C)cc1 [Compound 51]	–	10 µM	249%	4.9549	−23.8252%	2.1	46	–
CC1CCCCN1c1ncnc(N)c1[N+](=O)[O-] (stereo not drawn) [Compound 52]	–	4.47 µM	130%	1.4781	−27.7073%	2.1	46	–
O=C(Nc1ccc(Cl)cc1N1CCOCC1)C1CCCCC1 [Compound 53]	–	7.08 µM	119%	0.8	−11.267%	2.1	45	0%
CCCn1c(-c2cc(OC)c(OC)c(OC)c2)nc2c1c(=O)[nH]c(=O)n2Cc1ccccc1 [Compound 54]	–	12.6 µM	–	1.1341	39.3368%	2.1	45	–
CS(=O)(=O)c1ccc(Cl)c(NC(=O)CSc2nncn2-c2ccccc2)c1 [Compound 55]	–	12.6 µM	–	4.9549	−18.4203%	2.1	45	–
CC(C)(CC(=O)O)CC(=O)N1CCCN(c2nccc(C(F)(F)F)n2)CC1 [Compound 56]	–	3.98 µM	–	1.5095	21.8862%	2.1	45	–
COc1cc(CNCc2ccc(C(=O)O)cc2)ccc1OCc1ccc(F)cc1.Cl [Compound 57]	–	4.47 µM	–	1.7529	−0.5596%	2.1	45	–
COc1ccc(Nc2ncnc3ccc(C)cc23)cc1 [Compound 58]	–	3.55 µM	–	0.9	−42.3624%	2.1	45	–
COc1ccc(-n2c(C)c(C(C)=O)c3cc(OC(C)=O)ccc32)cc1 [Compound 59]	–	10 µM	–	3.5722	−3.6299%	2.1	45	–
O=C(COC(=O)c1cc2ccccc2oc1=O)Nc1ccc(F)cc1F [Compound 60]	–	4.47 µM	–	1.7529	−12.5146%	2.1	45	–
CCNC(=O)CSc1nc(-c2ccc(F)cc2)cs1 [Compound 61]	–	5.01 µM	–	1.1705	−3.94%	2.1	45	–
CC(C)NC(=O)CN1CCN(C(=O)CCl)CC1.Cl [Compound 62]	–	7.08 µM	–	1.9673	−23.864%	2.1	45	–
CS(=O)(=O)N(Cc1ccc(C(=O)NC2CCCC2)cc1)c1ccccc1 [Compound 63]	–	10 µM	–	3.1925	−1.7425%	2.1	45	–
C=CCN(CC=C)C(=O)c1ccc(OC2CCN(S(=O)(=O)N(C)C)CC2)cc1 [Compound 64]	–	5.01 µM	–	2.4729	−4.9734%	2.1	45	–

Source: US10028992B2, “Methods of treating muscular dystrophy” (BOARD OF REGENTS OF THE NEVADA SYSTEM OF HIGHER EDUCATION …, priority 2012, dated 2018)
